The record followed here is ChEMBL document CHEMBL1149927, “Synthesis of 7-methoxy-2-(1,3-dithiolan-2-ylidene)cephem sulphones. A new series of human leukocyte elastase inhibitors” (Bioorg Med Chem Lett, 1996).

The experiment deals with T1, Neutrophil elastase (Homo sapiens, UniProt P08246).
T1 sequence (P08246 whole entry): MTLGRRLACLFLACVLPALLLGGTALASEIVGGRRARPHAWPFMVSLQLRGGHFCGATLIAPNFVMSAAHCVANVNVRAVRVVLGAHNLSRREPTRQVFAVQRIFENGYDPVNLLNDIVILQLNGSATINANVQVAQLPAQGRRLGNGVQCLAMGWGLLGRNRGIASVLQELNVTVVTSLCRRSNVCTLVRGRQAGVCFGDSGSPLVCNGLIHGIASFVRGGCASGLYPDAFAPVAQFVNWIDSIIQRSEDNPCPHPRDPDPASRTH
Nature of the experiment: Inhibitory activity against human sputum elastase (HSE).

As to `CO[C@H]1C(=O)N2C(C(=O)OC(C)(C)C)=C(C)C(=C(SC)SC)S(=O)(=O)C12` (stereo not given in full), the IC50 was 74 nM.

Consider `CO[C@H]1C(=O)N2C(C(=O)OC(C)(C)C)=C(C)C(=C3SCC(OC(C)=O)CS3)S(=O)(=O)C12` (stereo not given in full), for which the half-maximal inhibitory concentration (IC50) turned out to be 320 nM.

`CO[C@H]1C(=O)N2C(C(=O)OC(C)(C)C)=C(C)CS(=O)(=O)C12` (stereo not given in full) showed an IC50 of 1800 nM.

The compound `CO[C@H]1C(=O)N2C(C(=O)OC(C)(C)C)=C(C)C(=C3SCCS3)S(=O)(=O)C12` (stereo not given in full) yielded an IC50 of 380 nM.

In the case of `CO[C@H]1C(=O)N2C(C(=O)OC(C)(C)C)=C(C)C(=C3SCC(O)CS3)S(=O)(=O)C12` (stereo not given in full), the IC50 was 330 nM.

As a reminder, the IC50 is the point on the concentration scale where inhibition reaches its midpoint. Read a low IC50 as inhibition by little substance.
